Test results as given in patent US20040033273A1, “Withasol and methods of use” (AyurCore, Inc., priority 2001, published 2004).
Read-outs that look alike come from different tables or passages of the source.

Assays:
[1] = tested on: BALB/c mouse with ascitic sarcoma (S-180)
Text: A study was then undertaken to determine the kinetics of cyclophosphamide treatment with respect to myelosuppression and immunosuppression. This step four aspect of the protocol establishes a time response curve for cyclophosphamide and determines optimal time for collection of blood samples and evaluation of hematological and serological parameters under the aforementioned conditions.
Mice were antigenically challenged with 0.5 cc of RBC suspension (1.0×10^8 cells/cc), intraperitoneally on day 1 as previously described. Mice from all groups were sensitized with RBC and a challenge dose was given on day 10.
Antibody titres were estimated using 96 well, U-bottom microtiter plates, double diluting serum samples and using 10% Human RBC suspension and complement (guinea pig serum).

[2] = tested on: BALB/c mouse implanted with ascitic sarcoma (S-180), CP treated; conditions: for Hb / Platelet Count (×10^3/mcl) / RBC Count (×10^6/mcl) / WBC Difference Count (%) Lymphocytes / WBC Difference Count (%) Polymorph / WBC Total Count (×10^3/mcl) / CF Titre (Log2) / HA Titre (Log2) / Difference in Weight (g) from Day 1 to 16: mean +/- SD
[3] = tested on: BALB/c mouse implanted with ascitic sarcoma, CP treated; conditions: for Hb / Platelet Count (×10^3mcl) / RBC Count (×10^6/mcl) / WBC Difference Count (%) Lymphocytes / WBC Difference Count (%) Polymorph / WBC Total Count (×10^3/mcl) / CF Titre (Log2) / HA Titre (Log2) / Difference in Weight (g) from Day 1 to 16: mean +/- SD
Protocol: This example describes dosing studies of WITHASOL in cyclophosphamide (CP) treated antigenically challenged BALB/c mouse animals implanted with ascitic sarcoma.
Following the established protocol, tumor was implanted on day 0. Test drugs as suspensions in 2.0% sterile CMC (vehicle) were prepared by Bio-Ved Laboratories. Antigenically sensitized (day 1) and challenged (day 10) mice, received test substances from day 1 to day 15 per oral route. Animals received appropriate vehicle (2.0% CMC) or CP (150 mg/kg) i.p. on day 11 and blood was collected on day 16. Body weights and gross observations were monitored during treatment.
Four doses, 400 mg/kg, 200 mg/kg, 100 mg/kg and 50 mg/kg of WITHASOL coded as R-1, R-2, R-3 and R-4, respectively, were used for this study. Decoding was done after the study was completed.
Data analysis was carried out using ANOVA single factor @<0.05 for comparison of the groups.

[4] = tested on: BALB/c mouse with ascitic sarcoma (S-180); conditions: for survival rate: CP 150 mg/kg ip on day 11, compared with the other dose regimens
[5] = CP 150 mg/Kg ip day 11 vs vehicle, days 13, 15, 17, 19 and 21
[6] = Tumor +, CP +: CP 150 mg/kg ip day 11, coded drug 100 mg/kg (vehicle for CP alone) po day 1-15, blood day 16
[7] = Tumor +, CP +: CP 150 mg/kg ip day 11, coded drug 100 mg/kg (vehicle for CP alone) po day 1-15, serum day 16
[8] = Tumor −, CP +, vehicle: CP 150 mg/kg ip day 11, blood day 16
[9] = Tumor −, CP +, vehicle: CP 150 mg/kg ip day 11, serum day 16
[10] = Tumor −, CP +, vehicle: CP 150 mg/kg ip day 11
[11] = groups I and II: CP 150 mg/kg ip day 11 in tumor free animals, day 16
[12] = groups III and IV: CP 150 mg/kg ip day 11 in tumor-bearing animals
[13] = groups III and IV: CP 150 mg/kg ip day 11 in tumor-bearing animals, day 16
[14] = Tumor +, CP +: CP 150 mg/kg ip day 11, WITHASOL po day 1-15 at 400 (R-1), 200 (R-2), 100 (R-3), 50 (R-4) mg/kg or vehicle (CP alone), blood day 16
[15] = Tumor +, CP +: CP 150 mg/kg ip day 11, WITHASOL po day 1-15 at 400 (R-1), 200 (R-2), 100 (R-3), 50 (R-4) mg/kg or vehicle (CP alone), day 16
[16] = Tumor −, CP +, vehicle: CP 150 mg/kg ip day 11, day 16
[17] = groups I and II: CP 150 mg/kg ip day 11 in tumor-free animals, day 16
[18] = groups I and II: CP 3.0 mg/kg po days 4 to 19 vs vehicle, blood day 20
[19] = groups III and IV: CP 100 mg/kg ip days 7, 9, 11 vs vehicle, blood day 20
[20] = groups V and VI: CP 150 mg/kg ip day 11 vs vehicle, blood day 20

`O=P1(N(CCCl)CCCl)NCCCO1` (stereo not shown) [CP, cyclophosphamide] was tested, and the “time of maximum myelosuppressive and immunosuppressive effect” value ([1]; CP 150 mg/Kg ip day 11, day after tumor implantation) was “day 15, or in between day 15 and day 17”, the “change in platelet counts” value ([1]; CP 150 mg/Kg ip day 11 vs vehicle) was “unaffected” and the “change in hemagglutinating antibody (HA) titers” value [1, 5] was “decrease”. The “change in hemolytic antibody titers (complement fixing-CF)” value [1, 5] was “decrease”, the “change in white blood cell counts” value ([1]; CP 150 mg/Kg ip day 11 vs vehicle, on day 13 and on day 15) was “significantly decreased” and the “change in hemoglobin content” value ([1]; CP 150 mg/Kg ip day 11 vs vehicle, on day 17) was “significant decrease”. For the same compound, the “change in red blood cell counts” value ([1]; CP 150 mg/Kg ip day 11 vs vehicle, on day 19 (P<0.09)) was “increased”, the tumor relapse ([1]; after a few days of cyclophosphamide treatment (150 mg/Kg ip day 11), animals died from tumor regrowth) was “Tumor relapse was observed” and the tumor regression ([1]; single cyclophosphamide dose of 150 mg/Kg ip on day 11) was “regression of tumor”. For the same compound, the “Hb” value [2, 6] was 11.07 ± 3.812 g/dL, the “Platelet Count (×10^3/mcl)” value [2, 6] was 614.17 +/− 287.466 ×10^3/mcl and the “RBC Count (×10^6/mcl)” value [2, 6] was 3.54 +/− 1.332 ×10^6/mcl. The “WBC Difference Count (%) Lymphocytes” value [2, 6] was 58.18 +/− 8.634%, the “WBC Difference Count (%) Polymorph” value [2, 6] was 41.42 +/− 8.634% and the “WBC Total Count (×10^3/mcl)” value [2, 6] was 4.53 +/− 0.797 ×10^3/mcl. For the same compound, the “CF Titre (Log2)” value [2, 7] was 1.83 +/− 0.408 Log2, the “HA Titre (Log2)” value [2, 7] was 2.17 +/− 0.837 Log2 and the “Difference in Weight (g) from Day 1 to 16” value (from here on “Difference in Weight (g)”) ([2]; Tumor +, CP +: S-180 bearing antigen-challenged mice, CP 150 mg/kg ip day 11, coded drug 100 mg/kg (vehicle for CP alone) po day 1-15) was -0.83 ± 2.563 g. The “Hb” value [2, 8] was 13.8 ± 1.103 g/dL, the “Platelet Count (×10^3/mcl)” value [2, 8] was 966.33 +/− 324.879 ×10^3/mcl and the “RBC Count (×10^6/mcl)” value [2, 8] was 4.37 +/− 0.718 ×10^6/mcl. For the same compound, the “WBC Difference Count (%) Lymphocytes” value [2, 8] was 63.73 +/− 2.7897%, the “WBC Difference Count (%) Polymorph” value [2, 8] was 36.2 +/− 2.7897% and the “WBC Total Count (×10^3/mcl)” value [2, 8] was 3.8 +/− 1.226 ×10^3/mcl. For the same compound, the “CF Titre (Log2)” value [2, 9] was 1.00 Log2, the “HA Titre (Log2)” value [2, 9] was 1.5 +/− 5.48 Log2 and the “Difference in Weight (g)” value [2, 10] was -0.5 ± 0.837 g. The “change in body weights” value ([2]; groups I and II: CP 150 mg/kg ip day 11 in tumor free animals) was “decrease”, the “change in HA antibody titers” value [2, 11] was “decreased” and the “change in HL antibody titers” value [2, 11] was “decreased”. For the same compound, the “change in hemoglobin content” value [2, 11] was “No significant change”, the “change in lymphocyte percent” value [2, 11] was “decreased” and the “change in platelet counts” value [2, 11] was “No significant change”. The “change in polymorph percent” value [2, 11] was “Increased”, the “change in red cell counts” value [2, 11] was “lowered” and the “change in white cell total counts” value [2, 11] was “lowered”. The “change in body weight” value [2, 12] was “decreased”, the “change in HA antibody titers” value [2, 13] was “decreased” and the “change in HL antibody titers” value [2, 13] was “decreased”. For the same compound, the “change in hemoglobin content” value [2, 13] was “No significant change”, the “change in lymphocyte percentage” value [2, 13] was “increase” and the “change in platelet counts” value [2, 13] was “Decreased”. For the same compound, the “change in polymorph percentage” value [2, 13] was “Decreased”, the “change in red cell counts” value [2, 13] was “No significant change” and the “change in white counts” value [2, 13] was “Decreased”. For the same compound, the “Survival on Day 16 (Day of Bleeding): No. of Animals Survived” value ([3]; Tumor +, CP + groups: CP 150 mg/kg ip day 11, WITHASOL po day 1-15 at 400 (R-1), 200 (R-2), 100 (R-3), 50 (R-4) mg/kg or vehicle (CP alone)) was 8, the “Hb” value [3, 14] was 12.8 ± 1.03 g/dL and the “Platelet Count (×10^3mcl)” value [3, 14] was 906.0 +/− 312.76 ×10^3mcl. The “RBC Count (×10^6/mcl)” value [3, 14] was 3.79 +/− 0.46 ×10^6/mcl, the “WBC Difference Count (%) Lymphocytes” value [3, 14] was 4.19 +/− 8.70% and the “WBC Difference Count (%) Polymorph” value [3, 14] was 58.1 +/− 8.70%. For the same compound, the “WBC Total Count (×10^3/mcl)” value [3, 14] was 6.2 +/− 2.17 ×10^3/mcl, the “CF Titre (Log2)” value [3, 15] was 3.5 +/− 0.53 Log2 and the “HA Titre (Log2)” value [3, 15] was 3.3 +/− 0.89 Log2. For the same compound, the “Difference in Weight (g)” value ([3]; Tumor +, CP +: CP 150 mg/kg ip day 11, WITHASOL po day 1-15 at 400 (R-1), 200 (R-2), 100 (R-3), 50 (R-4) mg/kg or vehicle (CP alone)) was 4.9 ± 2.36 g, the “Survival on Day 16 (Day of Bleeding): No. of Animals Survived” value ([3]; Tumor −, CP +, vehicle (group II)) was 10 and the “Hb” value [3, 8] was 12.9 ± 1.40 g/dL. For the same compound, the “Platelet Count (×10^3mcl)” value [3, 8] was 1170.2 +/− 152.33 ×10^3mcl, the “RBC Count (×10^6/mcl)” value [3, 8] was 4.04 +/− 0.54 ×10^6/mcl and the “WBC Difference Count (%) Lymphocytes” value [3, 8] was 76.7 +/− 4.35%. For the same compound, the “WBC Difference Count (%) Polymorph” value [3, 8] was 23.3 +/− 4.35%, the “WBC Total Count (×10^3/mcl)” value [3, 8] was 3.6 +/− 0.67 ×10^3/mcl and the “CF Titre (Log2)” value [3, 16] was 4.0 +/− 0.82 Log2. For the same compound, the “HA Titre (Log2)” value [3, 16] was 4.4 +/− 0.52 Log2, the “Difference in Weight (g)” value [3, 10] was 0.4 ± 0.52 g and the “change in body weights” value ([3]; groups I and II: CP 150 mg/kg ip day 11 in tumor-free animals) was “decreased”. The “change in HA antibody titres” value [3, 17] was “decreased”, the “change in HL antibody titres” value [3, 17] was “decreased” and the “change in hemoglobin content” value [3, 17] was “decreased”. The “change in platelet counts” value [3, 17] was “increased”, the “change in red cell counts” value [3, 17] was “decreased” and the “change in white cell differential counts” value [3, 17] was “no significant change”. The “change in white cell total counts” value [3, 17] was “decreased”, the “change in body weights” value [3, 12] was “decreased” and the “change in HA antibody titres” value [3, 13] was “decreased”. The “change in HL antibody titres” value [3, 13] was “decreased”, the “change in hemoglobin content” value [3, 13] was “no significant change” and the “change in lymphocyte percentage” value [3, 13] was “increased”. The “change in platelet counts” value [3, 13] was “no significant change”, the “change in polymorph percentage” value [3, 13] was “decrease” and the “change in red cell counts” value [3, 13] was “no significant change”. The “change in white cell total counts” value [3, 13] was “decrease”, the survival rate [4] was “maximum survival rate” and the survival rate ([4]; listed as cyclophosphamide) was “greatest survival rate”. For the same compound, the “change in weight of animals” value ([4]; all three CP doses (3.0 mg/kg po days 4-19; 100 mg/kg ip days 7, 9, 11; 150 mg/kg ip day 11) vs vehicle, t test) was “significant decrease”, the “change in hemoglobin content” value [4, 18] was “no significant change” and the change in lymphocytes [4, 18] was “no significant change”. For the same compound, the “change in monocyte counts” value [4, 18] was “significantly increased”, the “change in neutrophil counts” value [4, 18] was “significantly lowered” and the “change in platelet counts” value [4, 18] was “no significant change”. For the same compound, the “change in red cell counts” value [4, 18] was “no significant change”, the “change in total white cell counts” value [4, 18] was “significantly lowered” and the “change in hemoglobin content” value [4, 19] was “no significant change”. For the same compound, the “change in platelet counts” value [4, 19] was “no significant change”, the “change in red cell counts” value [4, 19] was “no significant change” and the “change in white cell differential counts” value [4, 19] was “no significant change”. The “change in white cell total counts” value [4, 19] was “no significant change”, the “change in hemoglobin content” value [4, 20] was “no significant change” and the change in monocytes [4, 20] was “no significant change”. For the same compound, the change in neutrophils [4, 20] was “significant increase”, the “change in platelet counts” value [4, 20] was “no significant change” and the “change in red cell counts” value [4, 20] was “no significant change”. For the same compound, the “change in white cell counts” value [4, 20] was “significant increase”.
